Data taken from patent US10023590B2, “Substituted pyridine compounds having herbicidal activity” (BASF SE, priority 2014, dated 2018).

Assays:
Type in all cases: in vivo
[1] = system: Digitaria sanguinalis; test: Greenhouse post-emergence herbicidal activity, DIGSA; settings: scale 0 to 100
Excerpt: (§1) The culture containers used were plastic flowerpots containing loamy sand with approximately 3.0% of humus as the substrate. The seeds of the test plants were sown separately for each species.
(§2) For the post-emergence treatment, the test plants were first grown to a height of 3 to 15 cm, depending on the plant habit, and only then treated with the active ingredients which had been suspended or emulsified in water. For this purpose, the test plants were either sown directly and grown in the same containers, or they were first grown separately as seedlings and transplanted into the test containers a few days prior to treatment.
(§3) Depending on the species, the plants were kept at 10-25° C. or 20-35° C., respectively.
(§4) The test period extended over 2 to 4 weeks. During this time, the plants were tended, and their response to the individual treatments was evaluated.
(§5) Evaluation was carried out using a scale from 0 to 100. 100 means no emergence of the plants, or complete destruction of at least the aerial moieties, and 0 means no damage, or normal course of growth. A good herbicidal activity is given at values of at least 70 and a very good herbicidal activity is given at values of at least 85.

[2] = system: Zea mays; test: Greenhouse post-emergence herbicidal activity on crop ZEAMX (corn, maize); set-up: key: 0 = no damage/normal growth, 100 = no emergence or complete destruction
Excerpt: as §1, §2, §3, §4, §5

[3] = system: Kochia scoparia; test: Greenhouse post-emergence herbicidal activity, KCHSC; settings: scale 0 to 100
Excerpt: as §1, §2, §3, §4, §5

[4] = system: Setaria faberi; test: Greenhouse post-emergence herbicidal activity, SETFA; settings: scale 0 to 100
Excerpt: as §1, §2, §3, §4, §5

[5] = system: Cirsium arvense; test: Greenhouse post-emergence herbicidal activity, CIRAR; settings: CIRAR; for pest or weed control at 125 g/ha: 0.125 kg/ha
Excerpt: as §1, §2, §3, §4, §5

[6] = system: Oryza sativa; test: Greenhouse post-emergence herbicidal activity on crop ORYSA (rice)
Excerpt: as §1, §2, §3, §4, §5

[7] = system: Amaranthus retroflexus; test: Greenhouse post-emergence herbicidal activity, AMARE; settings: AMARE; for pest or weed control at 2000 g/ha: 2 kg/ha, scale 0 to 100, read-out: Herbicidal activity
Excerpt: as §1, §2, §3, §4, §5

[8] = system: Abutilon theophrasti; test: Greenhouse post-emergence herbicidal activity, ABUTH; settings: ABUTH; for pest or weed control at 2000 g/ha: 2 kg/ha, scale 0 to 100, read-out: Herbicidal activity
Excerpt: as §1, §2, §3, §4, §5

[9] = system: Polygonum persicaria; test: Greenhouse post-emergence herbicidal activity, POLPE; settings: 0.063 kg/ha, scale 0 to 100
Excerpt: as §1, §2, §3, §4, §5

[10] = system: Chenopodium album; test: Greenhouse post-emergence herbicidal activity, CHEAL; settings: scale 0 to 100; for pest or weed control at 31 g/ha: 0.031 kg/ha; for pest or weed control at 63 g/ha: 0.063 kg/ha; for pest or weed control at 125 g/ha: 0.125 kg/ha
Excerpt: as §1, §2, §3, §4, §5

[11] = system: Stellaria media; test: Greenhouse post-emergence herbicidal activity, STEME; settings: scale 0 to 100
Excerpt: as §1, §2, §3, §4, §5

[12] = system: Setaria viridis; test: Greenhouse post-emergence herbicidal activity, SETVI; settings: 2 kg/ha, scale 0 to 100
Excerpt: as §1, §2, §3, §4, §5

[13] = system: Ambrosia artemisiifolia; test: Greenhouse post-emergence herbicidal activity, AMBEL; settings: scale 0 to 100
Excerpt: as §1, §2, §3, §4, §5

[14] = system: Veronica arvensis; test: Greenhouse post-emergence herbicidal activity, VERAR; settings: scale 0 to 100
Excerpt: as §1, §2, §3, §4, §5

[15] = system: Echinocloa crus-galli; test: Greenhouse post-emergence herbicidal activity, ECHCG; settings: Echinochloa crus-galli, ECHCG; for pest or weed control at 2000 g/ha: 2 kg/ha, scale 0 to 100, read-out: Herbicidal activity
Excerpt: as §1, §2, §3, §4, §5

[16] = system: Capsella bursa-pastoris; test: Greenhouse post-emergence herbicidal activity, CAPBP; settings: 0.063 kg/ha, scale 0 to 100
Excerpt: as §1, §2, §3, §4, §5

[17] = system: Erigeron canadensis; test: Greenhouse post-emergence herbicidal activity, ERICA
Excerpt: as §1, §2, §3, §4, §5

[18] = system: Eriochloa villosa; test: Greenhouse post-emergence herbicidal activity, ERBVI; settings: 0.031 kg/ha, scale 0 to 100
Excerpt: as §1, §2, §3, §4, §5

[19] = ZEAMX (corn, crop), 0.031 kg/ha, scale 0 to 100
[20] = ZEAMX (corn, crop), 0.063 kg/ha, scale 0 to 100
[21] = ZEAMX (corn, crop), 0.125 kg/ha, scale 0 to 100
[22] = ORYSA (rice, crop), 0.031 kg/ha, scale 0 to 100
[23] = ORYSA (rice, crop), 0.063 kg/ha, scale 0 to 100
[24] = ORYSA (rice, crop), 0.125 kg/ha, scale 0 to 100

SMILES | Herbicidal activity [2, 19] | Herbicidal activity [2, 20] | Herbicidal activity [2, 21] | Herbicidal activity [6, 22] | Herbicidal activity [6, 23] | pest or weed control at 31 g/ha ([7]; 0.031 kg/ha, scale 0 to 100) | pest or weed control at 63 g/ha ([7]; 0.063 kg/ha, scale 0 to 100) | pest or weed control at 125 g/ha ([7]; 0.125 kg/ha, scale 0 to 100) | pest or weed control at 2000 g/ha [7] | pest or weed control at 31 g/ha [10] | pest or weed control at 63 g/ha [10] | pest or weed control at 125 g/ha [10] | Herbicidal activity [6, 24] | pest or weed control at 2000 g/ha [8] | Herbicidal activity [12] | other results
CS(=O)(=O)Nc1ccc(Cl)c(C2=C(O)c3ncccc3CS2(=O)=O)c1Cl [I-5, N-[2,4-dichloro-3-(8-hydroxy-6,6-dioxo-5H-thiopyrano[4,3-b]pyridin-7-yl)phenyl]methanesulfonamide] | 0 | 0 | 0 | 25 | 35 | 75% | 95% | 95% | 98% | – | – | – | – | – | – | Herbicidal activity ([1]; 0.063 kg/ha): 90; Herbicidal activity ([1]; 0.125 kg/ha): 95; Herbicidal activity ([3]; 0.031 kg/ha): 90; Herbicidal activity ([3]; 0.063 kg/ha): 95; Herbicidal activity ([4]; 2 kg/ha): 100; pest or weed control at 31 g/ha ([5]; 0.031 kg/ha, scale 0 to 100): 75%; pest or weed control at 125 g/ha ([5]; scale 0 to 100): 90%
CN(c1ccc(Cl)c(C2=C(O)c3ncccc3C(C)(C)S2(=O)=O)c1Cl)S(C)(=O)=O [I-7, N-[2,4-dichloro-3-(8-hydroxy-5,5-dimethyl-6,6-dioxo-thiopyrano[4,3-b]pyridin-7-yl)phenyl]-N-methyl-methanesulfonamide] | 0 | 0 | 20 | 0 | 0 | – | – | 90% | – | 95% | 85% | 98% | 10 | – | – | pest or weed control at 250 g/ha ([8]; 0.25 kg/ha, scale 0 to 100): 100%; Herbicidal activity [9]: 80; pest or weed control at 250 g/ha ([10]; 0.25 kg/ha): 100%; Herbicidal activity ([6]; ORYSA (rice, crop), 0.25 kg/ha, scale 0 to 100): 15; Herbicidal activity ([11]; 0.063 kg/ha): 100; Herbicidal activity ([11]; 0.125 kg/ha): 100; Herbicidal activity ([11]; 0.25 kg/ha): 100
CC(C)N(c1c(Cl)ccc(C2=C(O)c3ncccc3CS2(=O)=O)c1Cl)S(C)(=O)=O [I-10, N-[2,6-dichloro-3-(8-hydroxy-6,6-dioxo-5H-thiopyrano[4,3-b]pyridin-7-yl)phenyl]-N-isopropyl-methanesulfonamide] | – | – | 10 | 10 | 10 | – | – | 70% | 100% | 85% | 85% | 90% | 15 | 98% | 98 | –
Cc1c(C2=C(O)c3ncccc3C(C)(C)S2(=O)=O)cccc1N(C)S(C)(=O)=O [I-14, N-[3-(8-hydroxy-5,5-dimethyl-6,6-dioxo-thiopyrano[4,3-b]pyridin-7-yl)-2-methyl-phenyl]-N-methyl-methanesulfonamide] | 15 | 20 | 35 | 0 | 0 | – | – | – | 100% | 98% | – | 100% | 10 | – | 100 | Herbicidal activity ([13]; 0.063 kg/ha): 100; Herbicidal activity ([13]; 0.125 kg/ha): 100; Herbicidal activity ([14]; 0.031 kg/ha): 100; Herbicidal activity ([14]; 0.063 kg/ha): 100; Herbicidal activity ([3]; 0.031 kg/ha): 95; Herbicidal activity ([3]; 0.063 kg/ha): 100; pest or weed control at 2000 g/ha [15]: 98%; Herbicidal activity ([11]; 0.125 kg/ha): 100
CCS(=O)(=O)N(C)c1c(Cl)ccc(C2=C(O)c3ncccc3C(C)(C)S2(=O)=O)c1Cl [I-19, N-[2,6-dichloro-3-(8-hydroxy-5,5-dimethyl-6,6-dioxo-thiopyrano[4,3-b]pyridin-7-yl)phenyl]-N-methyl-ethanesulfonamide] | – | 0 | – | – | – | 98% | 100% | 100% | 100% | 98% | – | 100% | – | 98% | 100 | Herbicidal activity [16]: 100; pest or weed control at 31 g/ha ([15]; 0.031 kg/ha, scale 0 to 100): 98%; pest or weed control at 125 g/ha ([15]; 0.125 kg/ha, scale 0 to 100): 100%; pest or weed control at 63 g/ha ([5]; 0.063 kg/ha, scale 0 to 100, read-out: Herbicidal activity): 100%
CN(c1c(Cl)ccc(C2=C(O)c3ncccc3C(C)(C)S2(=O)=O)c1Cl)S(=O)(=O)CC1CC1 [I-21, 1-cyclopropyl-N-[2,6-dichloro-3-(8-hydroxy-5,5-dimethyl-6,6-dioxo-thiopyrano[4,3-b]pyridin-7-yl)phenyl]-N-methyl-methanesulfonamide] | – | – | – | 0 | 30 | 98% | 98% | 100% | 100% | 95% | 98% | – | 45 | 100% | – | pest or weed control at 31 g/ha ([15]; 0.031 kg/ha, scale 0 to 100): 98%; pest or weed control at 2000 g/ha [15]: 100%; pest or weed control at 125 g/ha ([5]; scale 0 to 100): 100%; Herbicidal activity ([17]; 0.063 kg/ha, scale 0 to 100): 100; Herbicidal activity ([17]; 0.125 kg/ha, scale 0 to 100): 100
CN(c1c(Cl)ccc(C2=C(O)c3ncccc3C(C)(C)S2(=O)=O)c1Cl)S(=O)(=O)C1CC1 [I-28, N-[2,6-dichloro-3-(8-hydroxy-5,5-dimethyl-6,6-dioxo-thiopyrano[4,3-b]pyridin-7-yl)phenyl]-N-methyl-cyclopropanesulfonamide] | 20 | 30 | – | – | – | 98% | 98% | 98% | – | 98% | 98% | 98% | – | – | – | Herbicidal activity [18]: 95; Herbicidal activity ([4]; 0.25 kg/ha): 100; pest or weed control at 63 g/ha ([15]; 0.063 kg/ha, scale 0 to 100): 98%; pest or weed control at 125 g/ha ([15]; 0.125 kg/ha, scale 0 to 100): 100%; pest or weed control at 250 g/ha ([15]; 0.25 kg/ha, scale 0 to 100): 100%; pest or weed control at 250 g/ha ([7]; 0.25 kg/ha, scale 0 to 100): 98%
CN(c1c(Cl)ccc(C2=C(O)c3ncccc3C(C)(C)S2(=O)=O)c1C(F)(F)F)S(C)(=O)=O [I-32, N-[6-chloro-3-(8-hydroxy-5,5-dimethyl-6,6-dioxo-thiopyrano[4,3-b]pyridin-7-yl)-2-(trifluoromethyl)phenyl]-N-methyl-methanesulfonamide] | – | – | – | – | – | – | – | – | – | – | – | – | – | – | – | pest or weed control at 31 g/ha ([8]; application rate 0.031 kg/ha): 95%; pest or weed control at 63 g/ha ([8]; application rate 0.063 kg/ha): 90%; pest or weed control at 125 g/ha ([8]; application rate 0.125 kg/ha): 95%; pest or weed control at 250 g/ha ([8]; application rate 0.25 kg/ha): 98%; Herbicidal activity ([2]; crop ZEAMX (corn, maize), application rate 0.031 kg/ha): 5; Herbicidal activity ([2]; crop ZEAMX (corn, maize), application rate 0.063 kg/ha): 5; Herbicidal activity ([2]; crop ZEAMX (corn, maize), application rate 0.125 kg/ha): 15; pest or weed control at 31 g/ha ([15]; application rate 0.031 kg/ha): 90%; pest or weed control at 63 g/ha ([15]; application rate 0.063 kg/ha): 98%; pest or weed control at 125 g/ha ([15]; application rate 0.125 kg/ha): 95%; Herbicidal activity ([17]; application rate 0.25 kg/ha): 100; Herbicidal activity ([6]; crop ORYSA (rice), application rate 0.25 kg/ha): 30; pest or weed control at 31 g/ha ([7]; application rate 0.031 kg/ha): 98%; pest or weed control at 63 g/ha ([7]; application rate 0.063 kg/ha): 98%; pest or weed control at 125 g/ha ([7]; application rate 0.125 kg/ha): 98%; pest or weed control at 250 g/ha ([7]; application rate 0.25 kg/ha): 98%
